Test results taken from ChEMBL document CHEMBL4507258 (2021).

Legend:
[1] = target: Mitogen-activated protein kinase kinase kinase 19 (Homo sapiens) (UniProt Q56UN5); settings: Compound concentration 1000.0 nM
[2] = target: Cyclin-dependent kinase 2 (Homo sapiens) (UniProt P24941); settings: Compound concentration 1000.0 nM
[3] = target: Ephrin type-B receptor 2 (Homo sapiens) (UniProt P29323); settings: Compound concentration 1000.0 nM
[4] = target: Tyrosine-protein kinase JAK1 (Homo sapiens) (UniProt P23458); settings: Compound concentration 1000.0 nM
[5] = target: Interleukin-1 receptor-associated kinase 4 (Homo sapiens) (UniProt Q9NWZ3); settings: Compound concentration 1000.0 nM
[6] = target: G protein-coupled receptor kinase 3 (Homo sapiens) (UniProt P35626); settings: Compound concentration 1000.0 nM
[7] = target: 5-hydroxytryptamine receptor 2A (Homo sapiens) (UniProt P28223); settings: Compound concentration 10.0 uM
[8] = target: Serine/threonine-protein kinase MRCK alpha (Homo sapiens) (UniProt Q5VT25); settings: Compound concentration 1000.0 nM
[9] = target: Protein kinase C theta type (Homo sapiens) (UniProt Q04759); settings: Compound concentration 1000.0 nM
[10] = target: Rho-associated protein kinase 2 (Homo sapiens) (UniProt O75116); settings: Compound concentration 1000.0 nM
[11] = system: ALK tyrosine kinase receptor (Homo sapiens), Q9UM73 [L1196M]; settings: Compound concentration 1000.0 nM
[12] = target: Tyrosine-protein kinase ZAP-70 (Homo sapiens) (UniProt P43403); settings: Compound concentration 1000.0 nM
[13] = target: Proto-oncogene tyrosine-protein kinase receptor Ret (Homo sapiens) (UniProt P07949); settings: Compound concentration 1000.0 nM
[14] = target: Cyclin-dependent kinase 8 (Homo sapiens) (UniProt P49336); settings: Compound concentration 1000.0 nM
Cyclin-dependent kinase 8 (Homo sapiens), sequence (P49336 whole entry, the tested form may be a part): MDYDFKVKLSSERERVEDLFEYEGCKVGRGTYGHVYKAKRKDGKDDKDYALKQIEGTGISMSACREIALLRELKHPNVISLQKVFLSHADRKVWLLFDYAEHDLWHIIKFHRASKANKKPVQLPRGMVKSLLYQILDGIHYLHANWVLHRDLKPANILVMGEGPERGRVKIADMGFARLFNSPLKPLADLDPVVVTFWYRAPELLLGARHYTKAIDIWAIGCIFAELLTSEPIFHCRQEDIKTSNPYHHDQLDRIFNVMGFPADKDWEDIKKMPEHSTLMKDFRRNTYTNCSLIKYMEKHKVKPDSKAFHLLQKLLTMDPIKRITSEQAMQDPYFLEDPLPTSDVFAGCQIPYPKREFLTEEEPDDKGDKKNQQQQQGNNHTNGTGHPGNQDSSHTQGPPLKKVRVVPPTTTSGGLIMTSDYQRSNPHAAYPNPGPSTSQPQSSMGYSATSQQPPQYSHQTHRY

[15] = target: LIM domain kinase 1 (Homo sapiens) (UniProt P53667); settings: Compound concentration 1000.0 nM
[16] = target: Serine/threonine-protein kinase D2 (Homo sapiens) (UniProt Q9BZL6); settings: Compound concentration 1000.0 nM
[17] = target: Insulin receptor (Homo sapiens) (UniProt P06213); settings: Compound concentration 1000.0 nM
Insulin receptor (Homo sapiens), sequence (P06213 28-758 limits assumed): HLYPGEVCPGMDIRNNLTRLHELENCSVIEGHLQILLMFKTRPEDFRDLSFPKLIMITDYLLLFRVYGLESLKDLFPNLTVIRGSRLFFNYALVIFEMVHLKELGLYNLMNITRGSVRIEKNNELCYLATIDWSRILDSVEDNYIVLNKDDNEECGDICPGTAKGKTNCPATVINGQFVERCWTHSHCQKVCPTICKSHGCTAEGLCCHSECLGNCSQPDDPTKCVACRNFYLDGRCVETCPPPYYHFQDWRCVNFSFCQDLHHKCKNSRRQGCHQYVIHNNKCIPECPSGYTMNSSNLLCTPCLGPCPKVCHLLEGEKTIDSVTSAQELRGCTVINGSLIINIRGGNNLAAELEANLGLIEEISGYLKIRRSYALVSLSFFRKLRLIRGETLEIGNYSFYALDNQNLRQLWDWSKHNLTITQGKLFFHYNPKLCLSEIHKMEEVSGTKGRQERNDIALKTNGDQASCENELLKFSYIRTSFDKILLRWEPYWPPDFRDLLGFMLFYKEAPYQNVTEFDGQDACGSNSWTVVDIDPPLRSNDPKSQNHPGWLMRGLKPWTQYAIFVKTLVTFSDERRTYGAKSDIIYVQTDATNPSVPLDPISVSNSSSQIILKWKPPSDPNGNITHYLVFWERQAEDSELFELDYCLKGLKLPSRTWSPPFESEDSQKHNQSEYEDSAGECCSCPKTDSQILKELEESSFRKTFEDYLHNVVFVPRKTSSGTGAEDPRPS
Insulin receptor (Homo sapiens), sequence (P06213 763-1382 limits assumed): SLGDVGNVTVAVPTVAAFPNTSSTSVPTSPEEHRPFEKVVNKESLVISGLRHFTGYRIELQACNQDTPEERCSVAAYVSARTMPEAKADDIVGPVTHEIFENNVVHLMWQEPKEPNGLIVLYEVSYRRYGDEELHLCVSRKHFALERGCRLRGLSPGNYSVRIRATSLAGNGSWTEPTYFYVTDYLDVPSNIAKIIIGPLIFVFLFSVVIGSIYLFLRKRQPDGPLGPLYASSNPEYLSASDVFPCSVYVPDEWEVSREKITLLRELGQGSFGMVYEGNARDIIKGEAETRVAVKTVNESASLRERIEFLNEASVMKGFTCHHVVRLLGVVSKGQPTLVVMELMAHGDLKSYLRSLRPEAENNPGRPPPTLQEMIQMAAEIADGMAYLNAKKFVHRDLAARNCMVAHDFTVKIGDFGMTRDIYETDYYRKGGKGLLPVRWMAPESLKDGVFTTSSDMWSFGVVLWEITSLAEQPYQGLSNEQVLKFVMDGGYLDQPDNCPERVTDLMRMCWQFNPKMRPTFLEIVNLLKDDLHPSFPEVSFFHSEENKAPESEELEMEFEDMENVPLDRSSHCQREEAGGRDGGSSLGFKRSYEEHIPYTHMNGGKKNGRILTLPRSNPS

[18] = target: Serine/threonine-protein kinase RIO3 (Homo sapiens) (UniProt O14730); settings: Compound concentration 1000.0 nM
Serine/threonine-protein kinase RIO3 (Homo sapiens), sequence (O14730 whole entry): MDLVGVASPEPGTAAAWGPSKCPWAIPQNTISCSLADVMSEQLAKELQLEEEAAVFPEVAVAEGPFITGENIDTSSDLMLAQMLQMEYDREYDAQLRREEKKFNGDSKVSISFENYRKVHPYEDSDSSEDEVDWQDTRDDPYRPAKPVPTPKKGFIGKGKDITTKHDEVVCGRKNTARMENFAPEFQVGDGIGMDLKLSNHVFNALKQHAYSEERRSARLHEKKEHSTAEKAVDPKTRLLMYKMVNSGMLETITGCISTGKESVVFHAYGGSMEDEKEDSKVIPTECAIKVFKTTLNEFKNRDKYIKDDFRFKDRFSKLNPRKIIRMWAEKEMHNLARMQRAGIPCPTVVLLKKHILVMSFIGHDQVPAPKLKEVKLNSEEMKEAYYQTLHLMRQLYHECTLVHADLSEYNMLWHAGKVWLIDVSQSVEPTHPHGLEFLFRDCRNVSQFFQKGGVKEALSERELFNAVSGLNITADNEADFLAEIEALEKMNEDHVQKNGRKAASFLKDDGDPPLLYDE

[19] = target: Mitogen-activated protein kinase 8 (Homo sapiens) (UniProt P45983); settings: Compound concentration 1000.0 nM
[20] = system: Epidermal growth factor receptor (Homo sapiens), P00533 [UNDEFINED MUTATION]; settings: Compound concentration 1000.0 nM
[21] = target: Receptor-interacting serine/threonine-protein kinase 2 (Homo sapiens) (UniProt O43353); settings: Compound concentration 1000.0 nM
[22] = target: Mitogen-activated protein kinase kinase kinase 3 (Homo sapiens) (UniProt Q99759); settings: Compound concentration 1000.0 nM
[23] = target: RAC-gamma serine/threonine-protein kinase (Homo sapiens) (UniProt Q9Y243); settings: Compound concentration 1000.0 nM
RAC-gamma serine/threonine-protein kinase (Homo sapiens), sequence (Q9Y243 whole entry, canonical isoform): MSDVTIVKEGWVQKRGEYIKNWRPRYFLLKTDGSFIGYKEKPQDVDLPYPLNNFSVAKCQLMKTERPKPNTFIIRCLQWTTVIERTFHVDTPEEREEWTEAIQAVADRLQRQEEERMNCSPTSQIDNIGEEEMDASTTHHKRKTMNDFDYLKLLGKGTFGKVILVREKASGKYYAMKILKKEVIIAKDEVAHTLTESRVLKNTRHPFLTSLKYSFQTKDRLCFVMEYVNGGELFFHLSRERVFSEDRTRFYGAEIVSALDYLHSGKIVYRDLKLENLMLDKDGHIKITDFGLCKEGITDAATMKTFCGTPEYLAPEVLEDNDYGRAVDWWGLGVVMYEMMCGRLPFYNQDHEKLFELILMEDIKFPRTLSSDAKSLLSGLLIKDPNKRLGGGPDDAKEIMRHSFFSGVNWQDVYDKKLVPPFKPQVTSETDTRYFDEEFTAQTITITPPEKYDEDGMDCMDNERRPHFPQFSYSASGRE

[24] = target: Phosphatidylinositol 4,5-bisphosphate 3-kinase catalytic subunit alpha isoform (Homo sapiens) (UniProt P42336); settings: Compound concentration 1000.0 nM
[25] = target: Ribosomal protein S6 kinase alpha-3 (Homo sapiens) (UniProt P51812); settings: Compound concentration 1000.0 nM
[26] = system: Phosphatidylinositol 4,5-bisphosphate 3-kinase catalytic subunit alpha isoform (Homo sapiens), P42336 [H1047L]; settings: Compound concentration 1000.0 nM
[27] = target: MAP kinase-activated protein kinase 2 (Homo sapiens) (UniProt P49137); settings: Compound concentration 1000.0 nM
[28] = target: Focal adhesion kinase 1 (Homo sapiens) (UniProt Q05397); settings: Compound concentration 1000.0 nM
Focal adhesion kinase 1 (Homo sapiens), sequence (Q05397 2-1052 limits assumed): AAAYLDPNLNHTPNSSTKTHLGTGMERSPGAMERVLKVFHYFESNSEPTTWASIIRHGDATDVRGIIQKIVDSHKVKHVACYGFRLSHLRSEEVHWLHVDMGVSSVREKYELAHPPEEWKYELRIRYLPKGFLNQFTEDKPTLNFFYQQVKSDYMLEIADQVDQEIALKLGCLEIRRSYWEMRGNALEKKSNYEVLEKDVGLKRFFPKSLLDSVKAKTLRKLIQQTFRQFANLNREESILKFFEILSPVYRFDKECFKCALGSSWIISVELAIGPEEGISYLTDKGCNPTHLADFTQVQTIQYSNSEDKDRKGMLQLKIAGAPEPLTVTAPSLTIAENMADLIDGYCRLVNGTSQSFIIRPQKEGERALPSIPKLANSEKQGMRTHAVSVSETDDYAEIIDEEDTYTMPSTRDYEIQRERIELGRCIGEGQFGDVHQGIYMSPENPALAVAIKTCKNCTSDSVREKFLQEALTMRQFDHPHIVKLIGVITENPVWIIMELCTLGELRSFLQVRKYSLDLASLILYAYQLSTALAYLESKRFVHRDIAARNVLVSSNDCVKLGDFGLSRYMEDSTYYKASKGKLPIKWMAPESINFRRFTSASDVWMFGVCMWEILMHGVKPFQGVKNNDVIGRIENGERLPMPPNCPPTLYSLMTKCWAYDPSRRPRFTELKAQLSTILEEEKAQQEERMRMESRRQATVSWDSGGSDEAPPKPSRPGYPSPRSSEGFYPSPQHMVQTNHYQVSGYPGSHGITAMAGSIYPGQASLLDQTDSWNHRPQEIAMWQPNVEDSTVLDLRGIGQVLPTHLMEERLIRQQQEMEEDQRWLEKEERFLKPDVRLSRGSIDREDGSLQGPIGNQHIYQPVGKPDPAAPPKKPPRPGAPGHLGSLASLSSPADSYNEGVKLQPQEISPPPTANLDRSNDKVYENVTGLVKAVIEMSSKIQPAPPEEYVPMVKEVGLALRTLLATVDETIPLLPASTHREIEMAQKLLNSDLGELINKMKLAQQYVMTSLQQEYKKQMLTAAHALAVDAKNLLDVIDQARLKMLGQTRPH

[29] = target: STE20/SPS1-related proline-alanine-rich protein kinase (Homo sapiens) (UniProt Q9UEW8); settings: Compound concentration 1000.0 nM
[30] = target: TRAF2 and NCK-interacting protein kinase (Homo sapiens) (UniProt Q9UKE5); settings: Compound concentration 1000.0 nM
[31] = target: Receptor-type tyrosine-protein kinase FLT3 (Homo sapiens) (UniProt P36888); settings: Compound concentration 1000.0 nM
[32] = target: Serine/threonine-protein kinase Nek1 (Homo sapiens) (UniProt Q96PY6); settings: Compound concentration 1000.0 nM
[33] = target: Serine/threonine-protein kinase PLK3 (Homo sapiens) (UniProt Q9H4B4); settings: Compound concentration 1000.0 nM
[34] = target: Eukaryotic translation initiation factor 2-alpha kinase 1 (Homo sapiens) (UniProt Q9BQI3); settings: Compound concentration 1000.0 nM
[35] = target: T1, 5-hydroxytryptamine receptor 1A (Homo sapiens) (UniProt P08908); settings: Compound concentration 10.0 uM
T1 sequence (whole entry): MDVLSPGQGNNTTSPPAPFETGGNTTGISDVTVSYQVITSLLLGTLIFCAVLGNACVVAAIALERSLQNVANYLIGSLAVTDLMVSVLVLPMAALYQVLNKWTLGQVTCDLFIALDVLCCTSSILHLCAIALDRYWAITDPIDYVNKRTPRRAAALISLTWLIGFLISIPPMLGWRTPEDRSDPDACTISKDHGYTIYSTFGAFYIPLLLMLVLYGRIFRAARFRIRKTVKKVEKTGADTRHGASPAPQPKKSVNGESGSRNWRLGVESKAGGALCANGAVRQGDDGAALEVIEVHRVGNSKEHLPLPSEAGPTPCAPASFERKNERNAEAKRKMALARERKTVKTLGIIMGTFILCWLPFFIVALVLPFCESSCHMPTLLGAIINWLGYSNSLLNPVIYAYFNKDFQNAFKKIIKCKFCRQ

[36] = target: Wee1-like protein kinase (Homo sapiens) (UniProt P30291); settings: Compound concentration 1000.0 nM
[37] = target: Casein kinase I isoform gamma-1 (Homo sapiens) (UniProt Q9HCP0); settings: Compound concentration 1000.0 nM
[38] = target: Histamine H3 receptor (Homo sapiens) (UniProt Q9Y5N1); settings: Compound concentration 10.0 uM
[39] = target: Tyrosine-protein kinase Fes/Fps (Homo sapiens) (UniProt P07332); settings: Compound concentration 1000.0 nM
Tyrosine-protein kinase Fes/Fps (Homo sapiens), sequence (P07332 whole entry): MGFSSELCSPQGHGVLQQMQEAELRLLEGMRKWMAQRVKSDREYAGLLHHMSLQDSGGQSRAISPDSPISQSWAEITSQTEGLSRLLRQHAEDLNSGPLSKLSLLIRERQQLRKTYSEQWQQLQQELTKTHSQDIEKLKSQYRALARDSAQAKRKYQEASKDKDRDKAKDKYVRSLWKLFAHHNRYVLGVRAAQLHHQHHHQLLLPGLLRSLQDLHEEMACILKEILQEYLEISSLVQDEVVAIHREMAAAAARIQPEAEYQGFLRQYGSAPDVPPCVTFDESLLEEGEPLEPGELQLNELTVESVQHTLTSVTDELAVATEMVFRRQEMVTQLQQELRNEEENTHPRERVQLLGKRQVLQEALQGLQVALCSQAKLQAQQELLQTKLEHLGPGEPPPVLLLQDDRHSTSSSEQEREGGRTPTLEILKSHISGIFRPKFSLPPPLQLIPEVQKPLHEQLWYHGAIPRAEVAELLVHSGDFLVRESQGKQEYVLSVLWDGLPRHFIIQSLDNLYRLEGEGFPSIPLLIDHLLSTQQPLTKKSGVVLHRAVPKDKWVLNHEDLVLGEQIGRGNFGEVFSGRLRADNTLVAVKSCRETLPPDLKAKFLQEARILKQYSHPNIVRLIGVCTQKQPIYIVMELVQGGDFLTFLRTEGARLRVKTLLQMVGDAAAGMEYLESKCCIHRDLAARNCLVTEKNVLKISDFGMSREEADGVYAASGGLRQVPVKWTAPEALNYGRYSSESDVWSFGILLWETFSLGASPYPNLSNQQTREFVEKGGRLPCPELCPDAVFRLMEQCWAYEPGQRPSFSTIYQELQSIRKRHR

Row | SMILES | residual activity [1] | residual activity [2] | residual activity [3] | residual activity [4] | residual activity [5] | residual activity [6] | inhibition [7] | residual activity [8] | residual activity [9] | residual activity [10] | residual activity [11] | residual activity [12] | residual activity [13] | residual activity [14] | residual activity [15] | residual activity [16] | residual activity [17] | residual activity [18] | residual activity [19] | residual activity [20] | other results
1 | CCCCN(CCCC)C(=O)CN1C[C@@H](c2cc(OC)c3c(c2)OCO3)[C@H](C(=O)O)[C@H]1CC(C)(C)CCC [A-545] | 100% | 100% | 73% | 100% | 94.5% | 87.6% | 7.84% | 96.6% | 78.6% | 100% | 100% | 98.5% | 86.1% | 78% | 99% | 90.6% | 89% | 100% | 92.1% | 88.4% | residual activity [21]: 100%; residual activity [22]: 100%; residual activity [23]: 100%; residual activity [24]: 95.9%; residual activity [25]: 85.4%; residual activity [26]: 62.4%; residual activity [27]: 84.2%; residual activity [28]: 100%; residual activity [29]: 100%; residual activity [30]: 86%; residual activity [31]: 91.9%; residual activity [32]: 100%; residual activity [33]: 93.5%; residual activity [34]: 100%; inhibition [35]: 76.3%; residual activity [36]: 84.8%; residual activity [37]: 100%; inhibition [38]: 17%; residual activity [39]: 100%
2 | CCCCN(CCCC)C(=O)CN1C[C@H](c2cc(OC)c3c(c2)OCO3)[C@@H](C(=O)O)[C@@H]1CC(C)(C)CCC [ABT-546] | 90.3% | 100% | 100% | 84.7% | 67.5% | 50.8% | 8.83% | 100% | 100% | 85.2% | 100% | 70.1% | 100% | 100% | 100% | 100% | 75.8% | 74.9% | 100% | 94.3% | residual activity [21]: 100%; residual activity [22]: 94.3%; residual activity [23]: 100%; residual activity [24]: 89.7%; residual activity [25]: 54.9%; residual activity [26]: 100%; residual activity [27]: 100%; residual activity [28]: 100%; residual activity [29]: 100%; residual activity [30]: 100%; residual activity [31]: 100%; residual activity [32]: 100%; residual activity [33]: 90.6%; residual activity [34]: 100%; inhibition [35]: 20.6%; residual activity [36]: 95.4%; residual activity [37]: 100%; inhibition [38]: -3.57%; residual activity [39]: 100%
